According to ChEMBL document CHEMBL1671627, “Increasing trends in antimicrobial resistance among clinically important anaerobes and Bacteroides fragilis isolates causing nosocomial infections: emerging resistance to carbapenems” (2008):
≈ marks a conversion by molar mass, not a printed value.

Columns and labels:
[1] = tested on: Prevotella bivia; assay: Antibacterial activity against Prevotella bivia assessed as susceptible isolates by CLSI agar dilution method; format: functional
[2] = tested on: Clostridium septicum; assay: Antibacterial activity against beta-lactamase producing Clostridium septicum assessed as susceptible isolates by CLSI agar dilution method; format: functional
[3] = tested on: Clostridium septicum; assay: Antibacterial activity against beta-lactamase producing Clostridium septicum by CLSI agar dilution method; format: functional
[4] = tested on: Clostridium tertium; assay: Antibacterial activity against beta-lactamase producing Clostridium tertium assessed as resistant isolates by CLSI agar dilution method; format: functional
[5] = tested on: Bacteroides caccae; assay: Antibacterial activity against beta-lactamase producing Bacteroides caccae by CLSI agar dilution method; format: functional
[6] = tested on: Fusobacterium nucleatum; assay: Antibacterial activity against Fusobacterium nucleatum assessed as susceptible isolates by CLSI agar dilution method; format: functional
[7] = tested on: Prevotella buccae; assay: Antibacterial activity against Prevotella buccae assessed as susceptible isolates by CLSI agar dilution method; format: functional, Segatella buccae
[8] = tested on: Bacteroides uniformis; assay: Antibacterial activity against beta-lactamase producing Bacteroides uniformis assessed as susceptible isolates by CLSI agar dilution method; format: functional
[9] = tested on: Fusobacterium mortiferum; assay: Antibacterial activity against Fusobacterium mortiferum assessed as resistant isolates by CLSI agar dilution method; format: functional
[10] = tested on: Finegoldia magna; assay: Antibacterial activity against beta-lactamase producing Finegoldia magna by CLSI agar dilution method; format: functional
[11] = tested on: Peptostreptococcus anaerobius; assay: Antibacterial activity against beta-lactamase producing Peptostreptococcus anaerobius assessed as resistant isolates by CLSI agar dilution method; format: functional
[12] = tested on: Bacteroides fragilis; assay: Antibacterial activity against Bacteroides fragilis assessed as resistant isolates by CLSI agar dilution method; format: functional
[13] = tested on: Bacteroides uniformis; assay: Antibacterial activity against beta-lactamase producing Bacteroides uniformis by CLSI agar dilution method; format: functional
[14] = tested on: Clostridium tertium; assay: Antibacterial activity against beta-lactamase producing Clostridium tertium by CLSI agar dilution method; format: functional
[15] = tested on: Fusobacterium mortiferum; assay: Antibacterial activity against Fusobacterium mortiferum by CLSI agar dilution method; format: functional
[16] = tested on: Prevotella melaninogenica; assay: Antibacterial activity against Prevotella melaninogenica assessed as susceptible isolates by CLSI agar dilution method; format: functional
[17] = tested on: Fusobacterium varium; assay: Antibacterial activity against Fusobacterium varium by CLSI agar dilution method; format: functional
[18] = tested on: Fusobacterium nucleatum; assay: Antibacterial activity against Fusobacterium nucleatum assessed as resistant isolates by CLSI agar dilution method; format: functional
[19] = tested on: Parvimonas micra; assay: Antibacterial activity against beta-lactamase producing Micromonas micros assessed as resistant isolates by CLSI agar dilution method; format: functional
[20] = tested on: Prevotella melaninogenica; assay: Antibacterial activity against Prevotella melaninogenica by CLSI agar dilution method; format: functional
[21] = tested on: Clostridium perfringens; assay: microbe, parasite or virus in culture; format: functional
[22] = tested on: Parvimonas micra; assay: Antibacterial activity against beta-lactamase producing Micromonas micros assessed as susceptible isolates by CLSI agar dilution method; format: functional
[23] = tested on: Bacteroides thetaiotaomicron; assay: Antibacterial activity against beta-lactamase producing Bacteroides thetaiotaomicron assessed as resistant isolates by CLSI agar dilution method; format: functional
[24] = tested on: Finegoldia magna; assay: Antibacterial activity against beta-lactamase producing Finegoldia magna assessed as susceptible isolates by CLSI agar dilution method; format: functional
[25] = tested on: Bacteroides caccae; assay: Antibacterial activity against beta-lactamase producing Bacteroides caccae assessed as susceptible isolates by CLSI agar dilution method; format: functional
[26] = tested on: Bacteroides caccae; assay: Antibacterial activity against beta-lactamase producing Bacteroides caccae assessed as resistant isolates by CLSI agar dilution method; format: functional
[27] = tested on: Prevotella buccae; assay: Antibacterial activity against Prevotella buccae assessed as resistant isolates by CLSI agar dilution method; format: functional, Segatella buccae
[28] = tested on: Clostridium paraputrificum; assay: Antibacterial activity against beta-lactamase producing Clostridium paraputrificum assessed as susceptible isolates by CLSI agar dilution method; format: functional
[29] = tested on: Prevotella bivia; assay: Antibacterial activity against Prevotella bivia by CLSI agar dilution method; format: functional
[30] = tested on: Finegoldia magna; assay: Antibacterial activity against beta-lactamase producing Finegoldia magna assessed as resistant isolates by CLSI agar dilution method; format: functional
[31] = tested on: Clostridium tertium; assay: Antibacterial activity against beta-lactamase producing Clostridium tertium assessed as susceptible isolates by CLSI agar dilution method; format: functional
[32] = tested on: Clostridium paraputrificum; assay: Antibacterial activity against beta-lactamase producing Clostridium paraputrificum by CLSI agar dilution method; format: functional
[33] = tested on: Fusobacterium varium; assay: Antibacterial activity against Fusobacterium varium assessed as susceptible isolates by CLSI agar dilution method; format: functional
[34] = tested on: Prevotella bivia; assay: Antibacterial activity against Prevotella bivia assessed as resistant isolates by CLSI agar dilution method; format: functional
[35] = tested on: Fusobacterium necrophorum; assay: Antibacterial activity against Fusobacterium necrophorum assessed as resistant isolates by CLSI agar dilution method; format: functional
[36] = tested on: Fusobacterium nucleatum; assay: Antibacterial activity against Fusobacterium nucleatum by CLSI agar dilution method; format: functional
[37] = tested on: Bacteroides fragilis; assay: Antibacterial activity against Bacteroides fragilis by CLSI agar dilution method; format: functional
[38] = tested on: Bacteroides uniformis; assay: Antibacterial activity against beta-lactamase producing Bacteroides uniformis assessed as resistant isolates by CLSI agar dilution method; format: functional
[39] = tested on: Parvimonas micra; assay: Antibacterial activity against beta-lactamase producing Micromonas micros by CLSI agar dilution method; format: functional
[40] = tested on: Peptoniphilus asaccharolyticus; assay: Antibacterial activity against beta-lactamase producing Peptoniphilus asaccharolyticus by CLSI agar dilution method; format: functional
[41] = tested on: Peptoniphilus asaccharolyticus; assay: Antibacterial activity against beta-lactamase producing Peptoniphilus asaccharolyticus assessed as resistant isolates by CLSI agar dilution method; format: functional
[42] = tested on: Peptostreptococcus anaerobius; assay: Antibacterial activity against beta-lactamase producing Peptostreptococcus anaerobius by CLSI agar dilution method; format: functional
[43] = tested on: Clostridium septicum; assay: Antibacterial activity against beta-lactamase producing Clostridium septicum assessed as resistant isolates by CLSI agar dilution method; format: functional
[44] = tested on: Phocaeicola vulgatus; assay: Antibacterial activity against beta-lactamase producing Bacteroides vulgatus by CLSI agar dilution method; format: functional
[45] = tested on: Bacteroides thetaiotaomicron; assay: Antibacterial activity against beta-lactamase producing Bacteroides thetaiotaomicron assessed as susceptible isolates by CLSI agar dilution method; format: functional
[46] = tested on: Fusobacterium mortiferum; assay: Antibacterial activity against Fusobacterium mortiferum assessed as susceptible isolates by CLSI agar dilution method; format: functional
[47] = tested on: Prevotella intermedia; assay: Antibacterial activity against Prevotella intermedia assessed as resistant isolates by CLSI agar dilution method; format: functional
[48] = tested on: Prevotella buccae; assay: Antibacterial activity against Prevotella buccae by CLSI agar dilution method; format: functional; details: Segatella buccae
[49] = tested on: Fusobacterium necrophorum; assay: Antibacterial activity against Fusobacterium necrophorum by CLSI agar dilution method; format: functional
[50] = tested on: Peptostreptococcus anaerobius; assay: Antibacterial activity against beta-lactamase producing Peptostreptococcus anaerobius assessed as susceptible isolates by CLSI agar dilution method; format: functional
[51] = tested on: Clostridium paraputrificum; assay: Antibacterial activity against beta-lactamase producing Clostridium paraputrificum assessed as resistant isolates by CLSI agar dilution method; format: functional
[52] = tested on: Veillonella parvula; assay: Antibacterial activity against Veillonella parvula by CLSI agar dilution method; format: functional
[53] = tested on: Fusobacterium necrophorum; assay: Antibacterial activity against Fusobacterium necrophorum assessed as susceptible isolates by CLSI agar dilution method; format: functional
[54] = tested on: Fusobacterium varium; assay: Antibacterial activity against Fusobacterium varium assessed as resistant isolates by CLSI agar dilution method; format: functional
[55] = tested on: Prevotella intermedia; assay: Antibacterial activity against Prevotella intermedia assessed as susceptible isolates by CLSI agar dilution method; format: functional
[56] = tested on: Bacteroides thetaiotaomicron; assay: Antibacterial activity against beta-lactamase producing Bacteroides thetaiotaomicron by CLSI agar dilution method; format: functional
[57] = tested on: Bacteroides fragilis; assay: Antibacterial activity against Bacteroides fragilis assessed as susceptible isolates by CLSI agar dilution method; format: functional
[58] = tested on: Phocaeicola vulgatus; assay: Antibacterial activity against beta-lactamase producing Bacteroides vulgatus assessed as susceptible isolates by CLSI agar dilution method; format: functional
[59] = tested on: Phocaeicola vulgatus; assay: Antibacterial activity against beta-lactamase producing Bacteroides vulgatus assessed as resistant isolates by CLSI agar dilution method; format: functional
[60] = tested on: Prevotella melaninogenica; assay: Antibacterial activity against Prevotella melaninogenica assessed as resistant isolates by CLSI agar dilution method; format: functional
[61] = tested on: Prevotella intermedia; assay: Antibacterial activity against Prevotella intermedia by CLSI agar dilution method; format: functional
[62] = tested on: Peptoniphilus asaccharolyticus; assay: Antibacterial activity against beta-lactamase producing Peptoniphilus asaccharolyticus assessed as susceptible isolates by CLSI agar dilution method; format: functional

## C[C@@H](O)[C@H]1C(=O)N2C(C(=O)O)=C(S[C@@H]3CN[C@H](C(=O)N(C)C)C3)[C@H](C)[C@H]12 [MEROPENEM]
[1]
  Activity: 100%
[2]
  Activity: 100%
[3]
  MIC: 0.03 µg/mL (≈ 0.0782 µM)
  MIC50: 0.03 µg/mL (≈ 0.0782 µM)
  MIC90: 2 µg/mL (≈ 5.22 µM)
[4]
  Activity: 0%
[5]
  MIC50: 0.5 µg/mL (≈ 1.3 µM)
  MIC90: 2 µg/mL (≈ 5.22 µM)
[6]
  Activity: 92%
[7]
  Activity: 100%
[8]
  Activity: 96%
[9]
  Activity: 8%
[10]
  MIC50: 0.06 µg/mL (≈ 0.156 µM)
  MIC90: 0.5 µg/mL (≈ 1.3 µM)
[11]
  Activity: 0%
[12]
  Activity: 5%
[13]
  MIC50: 0.5 µg/mL (≈ 1.3 µM)
  MIC90: 2 µg/mL (≈ 5.22 µM)
[14]
  MIC: 0.03 µg/mL (≈ 0.0782 µM)
  MIC50: 0.03 µg/mL (≈ 0.0782 µM)
  MIC90: 2 µg/mL (≈ 5.22 µM)
[15]
  MIC50: 0.06 µg/mL (≈ 0.156 µM)
  MIC90: 0.12 µg/mL (≈ 0.313 µM)
[16]
  Activity: 100%
[17]
  MIC50: 0.06 µg/mL (≈ 0.156 µM)
  MIC90: 0.12 µg/mL (≈ 0.313 µM)
[18]
  Activity: 8%
[19]
  Activity: 0%
[20]
  MIC50: 0.12 µg/mL (≈ 0.313 µM)
  MIC90: 0.25 µg/mL (≈ 0.652 µM)
[21]
  MIC: 0.03 µg/mL (≈ 0.0782 µM)
  MIC50: 0.03 µg/mL (≈ 0.0782 µM)
  MIC90: 2 µg/mL (≈ 5.22 µM)
[22]
  Activity: 100%
[23]
  Activity: 0%
[24]
  Activity: 100%
[25]
  Activity: 96%
[26]
  Activity: 4%
[27]
  Activity: 0%
[28]
  Activity: 100%
[29]
  MIC50: 0.12 µg/mL (≈ 0.313 µM)
  MIC90: 0.25 µg/mL (≈ 0.652 µM)
[30]
  Activity: 0%
[31]
  Activity: 100%
[32]
  MIC: 0.03 µg/mL (≈ 0.0782 µM)
  MIC50: 0.03 µg/mL (≈ 0.0782 µM)
  MIC90: 2 µg/mL (≈ 5.22 µM)
[33]
  Activity: 92%
[34]
  Activity: 0%
[35]
  Activity: 8%
[36]
  MIC50: 0.06 µg/mL (≈ 0.156 µM)
  MIC90: 0.12 µg/mL (≈ 0.313 µM)
[37]
  MIC50: 0.28 µg/mL (≈ 0.73 µM)
  MIC90: 8 µg/mL (≈ 20.9 µM)
[38]
  Activity: 4%
[39]
  MIC50: 0.06 µg/mL (≈ 0.156 µM)
  MIC90: 0.5 µg/mL (≈ 1.3 µM)
[40]
  MIC50: 0.06 µg/mL (≈ 0.156 µM)
  MIC90: 0.5 µg/mL (≈ 1.3 µM)
[41]
  Activity: 0%
[42]
  MIC50: 0.06 µg/mL (≈ 0.156 µM)
  MIC90: 0.5 µg/mL (≈ 1.3 µM)
[43]
  Activity: 0%
[44]
  MIC50: 0.5 µg/mL (≈ 1.3 µM)
  MIC90: 2 µg/mL (≈ 5.22 µM)
[45]
  Activity: 97%
[46]
  Activity: 92%
[47]
  Activity: 0%
[48]
  MIC50: 0.12 µg/mL (≈ 0.313 µM)
  MIC90: 0.25 µg/mL (≈ 0.652 µM)
[49]
  MIC50: 0.06 µg/mL (≈ 0.156 µM)
  MIC90: 0.12 µg/mL (≈ 0.313 µM)
[50]
  Activity: 100%
[51]
  Activity: 0%
[52]
  MIC: 0.06 µg/mL (≈ 0.156 µM)
[53]
  Activity: 92%
[54]
  Activity: 8%
[55]
  Activity: 100%
[56]
  MIC50: 0.25 µg/mL (≈ 0.652 µM)
  MIC90: 2 µg/mL (≈ 5.22 µM)
[57]
  Activity: 88%
[58]
  Activity: 96%
[59]
  Activity: 4%
[60]
  Activity: 0%
[61]
  MIC50: 0.12 µg/mL (≈ 0.313 µM)
  MIC90: 0.25 µg/mL (≈ 0.652 µM)
[62]
  Activity: 100%
